According to US11401279B2, “Pyrido[3,2-d]pyrimidine compounds as immunomodulators” (Incyte Corporation, priority 2019, dated 2022):

What was measured:
PD-1/PD-L1 = PD-1/PD-L1 (Homo sapiens (Human), UniProt Q9NZQ7); test: Homogeneous Time-Resolved Fluorescence (HTRF) PD-1/PD-L1 binding assay; details: recombinant human PD-1 and PD-L1
Description: The assays were conducted in a standard black 384-well polystyrene plate with a final volume of 20 μL. Inhibitors were first serially diluted in DMSO and then added to the plate wells before the addition of other reaction components. The final concentration of DMSO in the assay was 1%. The assays were carried out at 25° C. in the PBS buffer (pH 7.4) with 0.05% Tween-20 and 0.1% BSA. Recombinant human PD-L1 protein (19-238) with a His-tag at the C-terminus was purchased from AcroBiosystems (PD1-H5229). Recombinant human PD-1 protein (25-167) with Fc tag at the C-terminus was also purchased from AcroBiosystems (PD1-H5257). PD-L1 and PD-1 proteins were diluted in the assay buffer and 10 μL was added to the plate well. Plates were centrifuged and proteins were preincubated with inhibitors for 40 minutes. The incubation was followed by the addition of 10 μL of HTRF detection buffer supplemented with Europium cryptate-labeled anti-human IgG (PerkinElmer-AD0212) specific for Fc and anti-His antibody conjugated to SureLight®-Allophycocyanin (APC, PerkinElmer-AD0059H). After centrifugation, the plate was incubated at 25° C. for 60 min. before reading on a PHERAstar FS plate reader (665 nm/620 nm ratio). Final concentrations in the assay were—3 nM PD1, 10 nM PD-L1, 1 nM europium anti-human IgG and 20 nM anti-His-Allophycocyanin. IC50 determination was performed by fitting the curve of percent control activity versus the log of the inhibitor concentration using the GraphPad Prism 5.0 software.

[1] = test system: U2OS/PD-L1 cells and Jurkat-PD-1-SHP cells; test: Src homology region 2 domain-containing phosphatase (SHP) assay; assay type: cell-based; details: Homo sapiens, U2OS; PathHunter chemiluminescence, 2 hours
Description: U2OS/PD-L1 cells (DiscoveRx Corporation) were maintained in McCoy's 5A medium with addition of 10% FBS, 0.25 μg/mL Puromycin. After removing the culture media, the cell medium was replaced with assay medium (RPMI1640 medium with 1% FBS). The U2OS/PD-L1 cells were then added in 384-well black clear bottom assay plate (CELLCOAT® Tissue Culture Plates, Greiner Bio-One) at 5000 cells per well in 20 μL assay medium. Test compounds were prepared by serial dilution in DMSO and 125 nL compound were first transferred to the 384 REMP plate well (Thermofisher) by ECHO liquid handler (Labcyte) followed with addition of 27.5 μL assay medium. 5 µL/well compounds in the assay medium were transferred to the cell plate with 0.05% DMSO in the final assay at 0.25 μM. Jurkat-PD-1-SHP cells (DiscoveRx Corporation) were cultured in RPMI1640 medium supplemented with 10% FBS, 250 μg/mL Hygromycin B, 500 μg/mL G418. After the replacement of culture media with assay medium, 5,000 Jurkat-PD-1-SHP cells in 20 μL were dispensed into each well. The assay plate was incubated at 37° C., 5% CO2 for 2 hours before 2.5 μL PathHunter reagent 1 (DiscoveRx Corporation) were added to each well. The assay plate was shaken for 1 min at 350 rpm in the dark followed with addition of 10 μL PathHunter reagent 2 (DiscoveRx Corporation). Chemiluminescent signal was recorded with TopCount reader (Perkin Elmer) after incubation at room temperature for 1 hour. Wells with DMSO were served as the positive controls and wells containing no cells were used as negative controls. IC50 determination was performed by fitting the curve of percentage of control activity versus the log of the compound concentration using the GraphPad Prism 6.0 software.

[2] = test system: PD-L1 aAPC/CHO-K1 cells and Jurkat-PD-1-NFAT effector cells; test: Nuclear factor of activated T-cells (NFAT) assay; assay type: cell-based; details: Cricetulus griseus, CHO-K1; luminescence, 24 hours
Description: PD-L1 aAPC/CHO-Klcells (Promega) were maintained in F-12 medium with addition of 10% FBS, 200 μg/mL Hygromycin B, 250 μg/mL Geneticin (G418). Jurkat-PD-1-NFAT effector cells (Promega) were cultured in RPMI 1640 medium supplemented with 10% FBS, 100 μg/mL Hygromycin B, 500 μg/mL G418. The culture media of PD-L1 aAPC/CHO-K1 cells were first replaced with assay medium (RPMI1640 medium with 1% FBS). The PD-L1 aAPC/CHO-Klcells were then added in a white 384-well white clear bottom assay plate (CELLCOAT® Tissue Culture Plates, Greiner Bio-One) at 8000 per well in 10 μL assay medium. Test compounds were prepared by serial dilution in DMSO and 0.8 μL test compounds in DMSO were first transferred to the 384 REMP plate well (Thermofisher) by PlateMate Plus (Thermofisher) followed with addition of 50 μL plating medium. 5 μL compounds in the assay medium were transferred to the cells with 0.4% DMSO in the final assay at 2 μM. After removing the culture media, 10,000 Jurkat-PD-1-NFAT effector cells in 5 μL assay medium was dispensed into each well. The assay plate was incubated at 37° C., 5% CO2 for 24 hours. After the assay plate was equilibrated to room temp for 15 minutes, 20 μL/well of Bio-Glo™ reagent (Promega) were added. After 8 minutes incubation at room temperature, luminescence was read at with Pherastar microplate reader (BMG Labtech). The fold of induction (FOI) was calculated based on the ratio of luminescence normalized to the DMSO wells within each assay plate. The maximum percentage of induction was reported based on the ratio between the highest FOI of each compound and the maximum FOI of control compound within each assay plate. Wells with DMSO were served as the negative controls and wells containing control compound with the highest FOI were used as positive controls. EC50 determination was performed by fitting the curve of percent control activity versus the log of the compound concentration using the GraphPad Prism 6.0 software.

PD-L1 = PD-L1 (Homo sapiens (Human), UniProt Q9NZQ7); test: PD-L1 whole blood internalization assay; assay type: cell-based; details: PD-L1 internalization in human whole blood, CD14+ cells, interferon γ, 24 hour
Sequence of PD-L1 (Q9NZQ7 19-290): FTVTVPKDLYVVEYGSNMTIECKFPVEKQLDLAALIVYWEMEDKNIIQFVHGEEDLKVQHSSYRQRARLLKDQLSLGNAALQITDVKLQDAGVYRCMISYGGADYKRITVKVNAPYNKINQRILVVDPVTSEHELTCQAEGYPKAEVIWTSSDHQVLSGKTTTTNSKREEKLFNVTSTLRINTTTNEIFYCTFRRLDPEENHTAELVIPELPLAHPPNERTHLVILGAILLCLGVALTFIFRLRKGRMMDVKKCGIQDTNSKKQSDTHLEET
Description: To determine PD-L1 internalization in human whole blood, normal human blood (Biological Specialty Corp, Colmar. Pa.) was incubated in the presence or absence of a concentration range of test compounds and 1 ng/mL human interferon γ (R&D Systems Inc. Minn. […] Blood was then stained with PD-L1 (MIH1, eBioscience; or BD Biosciences San Jose, Calif.), CD14 (Life Technologies, Carlsbad, Calif.) for 30 minutes in the dark at room temperature. Whole Blood/red cells were lysed/fixed (lysis buffer BD Biosciences) for 5 minutes at 37° C. in the dark and then centrifuged at 1600 RPM for 5 minutes. Cells were resuspended in Stain Buffer (BD Bioscience, San Jose, Calif.) and transferred into 96 well round bottom plates (Corning). Cells were gated on CD14+(BD Biosciences) and PD-L1 expression determined by mean fluorescence intensity (MFI) (BD LSRFortessa™ X-20). IC50 determination was performed by fitting the curve of compound percent inhibition versus the log of the compound concentration using the GraphPad Prism 7.0 software.

[3] = In vivo pharmacokinetics in rats; set-up: species or system Sprague Dawley rats; details: rat, cassette dosing
Description: For in vivo pharmacokinetic experiments, test compounds were administered to male Sprague Dawley rats or male and female Cynomolgus monkeys intravenously or via oral gavage. For intravenous (IV) dosing, test compounds were dosed at 0.5 to 1 mg/kg using a formulation of 10% dimethylacetamide (DMAC) in acidified saline via IV bolus for rat and 5 min or 10 min IV infusion for monkey. For oral (PO) dosing, test compounds were dosed at 1.0 to 3.0 mg/kg using 5% DMAC in 0.5% methylcellulose in citrate buffer (pH 3.5). Blood samples were collected at predose and various time points up to 24 hours postdose. All blood samples were collected using EDTA as the anticoagulant and centrifuged to obtain plasma samples. The plasma concentrations of test compounds were determined by LC-MS methods. The measured plasma concentrations were used to calculate PK parameters by standard noncompartmental methods using Phoenix® WinNonlin software program (version 7.0, Pharsight Corporation).
In rats and monkeys, cassette dosing of test compounds were conducted to obtain preliminary PK parameters.

[4] = male, Sprague-Dawley, plasma, 1.0 mg/kg IV

Sequence of PD-1/PD-L1 (Q9NZQ7 19-238): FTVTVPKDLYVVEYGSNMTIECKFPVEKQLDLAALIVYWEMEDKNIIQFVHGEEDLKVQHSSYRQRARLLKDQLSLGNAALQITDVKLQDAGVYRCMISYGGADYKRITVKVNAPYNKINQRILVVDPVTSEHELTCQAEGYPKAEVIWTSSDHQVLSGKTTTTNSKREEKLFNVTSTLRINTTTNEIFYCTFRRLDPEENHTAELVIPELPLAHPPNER

| SMILES | IC50 (PD-1/PD-L1) [nM] | IC50 [1] [nM] | IC50 (PD-L1) [nM] | clearance [3, 4] [mL/min/kg] | half-life [3, 4] [h] | Vd ([3]; male, Sprague-Dawley, plasma, 1.0 mg/kg IV, read-out: Vss) [L/kg] | Cmax ([3]; male, Sprague-Dawley, plasma, 3.0 mg/kg PO) [nM] | AUC(0-inf) ([3]; male, Sprague-Dawley, plasma, 3.0 mg/kg PO, read-out: AUC0-inf) [µM·h] | F ([3]; 3.0 mg/kg PO) [%] | EC50 [2] [nM] |
| --- | --- | --- | --- | --- | --- | --- | --- | --- | --- | --- |
| Cc1c(NC(=O)c2nc3c(n2C)CCN(CCC24CCC(C(=O)O)(CC2)C4)C3)cccc1-c1cccc(Nc2nc(C(F)F)nc3cc(CN4CC[C@@](C)(O)C4)cnc23)c1C [Example 6, (R)-4-(2-(2-((3′-((2-(difluoromethyl)-7-((3-hydroxy-3-methylpyrrolidin-1-yl)methyl)pyrido[3,2-d]pyrimidin-4-yl)amino)-2,2′-dimethyl-[1,1′-biphenyl]-3-yl)carbamoyl)-1-methyl-1,4,6,7-tetrahydro-5H-imidazo[4,5-c]pyridin-5-yl)ethyl)bicyclo[2.2.1]heptane-1-carboxylic Acid] | – | 2.2 | 31 | 12.7 | 4.5 | 2.99 | 182 | 1.43 | 30 | 8.2 |
| Cc1c(Nc2nc(C(F)F)nc3cc(CN4CCC[C@H]4C)cnc23)cccc1-c1cccc(NC(=O)c2nc3c(n2C)CCN(CCC24CCC(C(=O)O)(CC2)C4)C3)c1Cl [Example 8, (R)-4-(2-(2-((2-chloro-3′-((2-(difluoromethyl)-7-((2-methylpyrrolidin-1-yl)methyl)pyrido[3,2-d]pyrimidin-4-yl)amino)-2′-methyl-[1,1′-biphenyl]-3-yl)carbamoyl)-1-methyl-1,4,6,7-tetrahydro-5H-imidazo[4,5-c]pyridin-5-yl)ethyl)bicyclo[2.2.1]heptane-1-carboxylic Acid] | 1.5 | 4 | 33 | – | – | – | – | – | – | 7 |
| Cc1c(Nc2nc(C(F)F)nc3cc(CN[C@@H]4CCC[C@@H]4O)cnc23)cccc1-c1cccc(NC(=O)c2nc3c(n2C)CCN(CCC24CCC(C(=O)O)(CC2)C4)C3)c1Cl [Example 9, 4-(2-(2-((2-chloro-3′-((2-(difluoromethyl)-7-((((1R,2S)-2-hydroxycyclopentyl)amino)methyl)pyrido[3,2-d]pyrimidin-4-yl)amino)-2′-methyl-[1,1′-biphenyl]-3-yl)carbamoyl)-1-methyl-1,4,6,7-tetrahydro-5H-imidazo[4,5-c]pyridin-5-yl)ethyl)bicyclo[2.2.1]heptane-1-carboxylic Acid] | 1.7 | 4 | 6.4 | – | – | – | – | – | – | 3 |
| Cn1c(C(=O)Nc2cccc(-c3cccc(NC(=O)c4nc5c(n4C)CCN(C4CCOCC4)C5)c3Cl)c2Cl)nc2c1CCN(CC13CCC(C(=O)O)(CC1)C3)C2 [Example 179, reference compound] | 18 | 61 | – | – | – | – | – | – | – | 709 |

More lines, main results first:

| IC50 (PD-1/PD-L1) [nM] | IC50 [1] [nM] | IC50 (PD-L1) [nM] | clearance [3, 4] [mL/min/kg] | half-life [3, 4] [h] | Vd ([3]; male, Sprague-Dawley, plasma, 1.0 mg/kg IV, read-out: Vss) [L/kg] | Cmax ([3]; male, Sprague-Dawley, plasma, 3.0 mg/kg PO) [nM] | AUC(0-inf) ([3]; male, Sprague-Dawley, plasma, 3.0 mg/kg PO, read-out: AUC0-inf) [µM·h] | F ([3]; 3.0 mg/kg PO) [%] | SMILES | EC50 [2] [nM] |
| --- | --- | --- | --- | --- | --- | --- | --- | --- | --- | --- |
| 1.5 | 2.5 | 18 | – | – | – | – | – | – | Cc1c(Nc2nc(C(F)F)nc3cc(CN4CC[C@H](O)C4)cnc23)cccc1-c1cccc(NC(=O)c2nc3c(n2C)CCN(CCC24CCC(C(=O)O)(CC2)C4)C3)c1Cl [Example 3, (S)-4-(2-(2-((2-chloro-3′-((2-(difluoromethyl)-7-((3-hydroxypyrrolidin-1-yl)methyl)pyrido[3,2-d]pyrimidin-4-yl)amino)-2′-methyl-[1,1′-biphenyl]-3-yl)carbamoyl)-1-methyl-1,4,6,7-tetrahydro-5H-imidazo[4,5-c]pyridin-5-yl)ethyl)bicyclo[2.2.1]heptane-1-carboxylic Acid] | 4 |
| 1.9 | 3.5 | 17 | – | – | – | – | – | – | Cc1c(Nc2nc(C(F)F)nc3cc(CN4CC[C@](C)(O)C4)cnc23)cccc1-c1cccc(NC(=O)c2nc3c(n2C)CCN(CCC24CCC(C(=O)O)(CC2)C4)C3)c1Cl [Example 4, (S)-4-(2-(2-((2-chloro-3′-((2-(difluoromethyl)-7-((3-hydroxy-3-methylpyrrolidin-1-yl)methyl)pyrido[3,2-d]pyrimidin-4-yl)amino)-2′-methyl-[1,1′-biphenyl]-3-yl)carbamoyl)-1-methyl-1,4,6,7-tetrahydro-5H-imidazo[4,5-c]pyridin-5-yl)ethyl)bicyclo[2.2.1]heptane-1-carboxylic Acid] | 4 |
| 1.5 | 2.2 | 16 | – | – | – | – | – | – | Cc1c(Nc2nc(C(F)F)nc3cc(CN4CCCC4)cnc23)cccc1-c1cccc(NC(=O)c2nc3c(n2C)CCN(CCC24CCC(C(=O)O)(CC2)C4)C3)c1Cl [Example 7, 4-(2-(2-((2-chloro-3′-((2-(difluoromethyl)-7-(pyrrolidin-1-ylmethyl)pyrido[3,2-d]pyrimidin-4-yl)amino)-2′-methyl-[1,1′-biphenyl]-3-yl)carbamoyl)-1-methyl-1,4,6,7-tetrahydro-5H-imidazo[4,5-c]pyridin-5-yl)ethyl)bicyclo[2.2.1]heptane-1-carboxylic Acid] | 4 |
